In patent US12258336B2, “Preparation of seimicarbazide-sensitive amine oxidase inhibitor and use thereof” (SHANGHAI ENNOVABIO PHARMACEUTICALS CO., LTD., priority 2018, dated 2025):

Columns and labels:
Format in all cases: biochemical
Recombinant human MAO-A = target: T1, Recombinant human MAO-A (Homo sapiens, UniProt P21397); assay: Inhibitory activity on MAO-A
T1 construct: purchased Sigma M7316
T1 sequence (P21397 1-527): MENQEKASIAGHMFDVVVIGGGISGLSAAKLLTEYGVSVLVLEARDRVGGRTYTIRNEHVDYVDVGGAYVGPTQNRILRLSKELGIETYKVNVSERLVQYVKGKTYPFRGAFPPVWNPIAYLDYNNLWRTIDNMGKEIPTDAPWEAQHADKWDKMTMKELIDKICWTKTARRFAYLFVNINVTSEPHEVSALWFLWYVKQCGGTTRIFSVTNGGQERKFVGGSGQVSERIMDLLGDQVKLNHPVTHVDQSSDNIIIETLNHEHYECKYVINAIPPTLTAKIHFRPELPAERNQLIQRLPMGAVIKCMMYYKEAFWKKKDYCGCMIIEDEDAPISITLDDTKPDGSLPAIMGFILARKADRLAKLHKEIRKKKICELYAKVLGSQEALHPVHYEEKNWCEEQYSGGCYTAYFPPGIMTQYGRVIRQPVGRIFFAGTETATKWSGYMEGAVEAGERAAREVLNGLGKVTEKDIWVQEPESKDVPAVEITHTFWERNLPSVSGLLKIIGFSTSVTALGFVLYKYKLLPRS
Method: (§1) Recombinant human MAO-A and MAO-B protein was purchased from Sigma (M7316, M7441). Other reagents are the same as Biological Test Example 1. The final concentration of test compound in 10 μL reaction system was 100 μM to 5 nM when MAO-A and MAO-B were detected. The final concentrations of MAO-A and MAO-B protein in 10 μL reaction system were 70 nM and 300 nM, respectively, while other reaction conditions were the same as those in Biological Test Example 1. Data analysis and IC50 calculation method were the same as those in Biological Test Example 1.

Recombinant human MAO-B = target: T2, Recombinant human MAO-B (Homo sapiens, UniProt P27338); assay: Inhibitory activity on MAO-B
T2 construct: purchased Sigma M7441
T2 sequence (P27338 1-520): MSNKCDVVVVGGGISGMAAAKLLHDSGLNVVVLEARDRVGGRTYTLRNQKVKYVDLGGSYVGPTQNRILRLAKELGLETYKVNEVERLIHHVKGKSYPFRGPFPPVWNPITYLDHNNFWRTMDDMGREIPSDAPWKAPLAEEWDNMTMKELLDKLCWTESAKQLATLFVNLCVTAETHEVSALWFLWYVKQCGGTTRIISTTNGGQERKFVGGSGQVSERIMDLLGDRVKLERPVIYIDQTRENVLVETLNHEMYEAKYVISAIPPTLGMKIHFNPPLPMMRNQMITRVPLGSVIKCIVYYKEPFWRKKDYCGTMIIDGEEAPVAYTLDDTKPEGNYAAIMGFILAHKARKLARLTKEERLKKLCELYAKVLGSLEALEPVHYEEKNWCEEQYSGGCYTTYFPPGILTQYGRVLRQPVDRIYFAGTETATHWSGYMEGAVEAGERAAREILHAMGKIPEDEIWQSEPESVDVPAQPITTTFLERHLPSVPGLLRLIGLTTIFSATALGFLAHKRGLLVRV
Method: as §1

[1] = target: T3, Recombinant human SSAO protein (Homo sapiens, UniProt Q16853); assay: In vitro inhibitory activity on SSAO/VAP-1 (MAO-Glo assay), human
T3 construct: Eli Lilly (provided, not a catalogue product)
T3 sequence (Q16853 1-763): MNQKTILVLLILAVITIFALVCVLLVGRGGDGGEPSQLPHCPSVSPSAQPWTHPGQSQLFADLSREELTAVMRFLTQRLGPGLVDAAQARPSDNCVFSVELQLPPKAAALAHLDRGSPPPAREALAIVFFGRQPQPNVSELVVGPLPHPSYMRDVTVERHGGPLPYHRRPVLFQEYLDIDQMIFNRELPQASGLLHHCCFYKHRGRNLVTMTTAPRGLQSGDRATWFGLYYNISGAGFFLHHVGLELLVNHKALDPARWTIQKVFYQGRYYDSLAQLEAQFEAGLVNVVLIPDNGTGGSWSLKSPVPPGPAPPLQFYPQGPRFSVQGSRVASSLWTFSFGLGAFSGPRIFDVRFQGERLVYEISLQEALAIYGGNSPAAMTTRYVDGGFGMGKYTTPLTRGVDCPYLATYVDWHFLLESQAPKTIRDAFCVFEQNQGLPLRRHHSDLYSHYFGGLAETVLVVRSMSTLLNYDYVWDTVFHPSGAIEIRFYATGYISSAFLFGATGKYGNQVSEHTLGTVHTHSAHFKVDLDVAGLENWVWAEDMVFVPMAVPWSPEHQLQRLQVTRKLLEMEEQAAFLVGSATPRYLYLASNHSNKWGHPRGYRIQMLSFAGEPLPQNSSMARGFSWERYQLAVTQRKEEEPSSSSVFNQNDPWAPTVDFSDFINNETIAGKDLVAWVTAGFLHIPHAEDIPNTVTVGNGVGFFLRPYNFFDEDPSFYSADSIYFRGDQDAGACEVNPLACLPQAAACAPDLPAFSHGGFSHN
Method: This assay was used to evaluate the in vitro inhibitory activity of the compounds on SSAO/VAP-1 of different species. Recombinant human SSAO protein, mouse SSAO protein or rat SSAO protein (provided by Eli Lilly) were used. The enzyme activity detection kit, MAO-Glo Assay kit (V1402) was purchased from Promega. Enzyme reaction buffer (50 mM HEPES, 120 mM NaCl, 5 mM KCl, 2 mM CaCl2, 1.4 mM MgCl2, 0.001% Tween-20, pH7.4) was prepared. The test compound was dissolved in DMSO and diluted by 3-fold concentration in gradient. The final concentration of test compound in a 10 μL reaction system was 1 μM to 0.05 nM when SSAO was detected. The content of DMSO in the detection reaction was 1%. After the solution of test compound in DMSO was diluted in the enzyme reaction buffer at a volume ratio of 1:25, 2.5 μL of which was added to each well of detection plate, two replicates for each concentration. 5 μL of SSAO protein diluted in the enzyme reaction buffer was added to each well, the final concentration of which was 10 nM to 80 nM in 10 μL reaction system. The mixture was incubated at room temperature for 10 minutes. 2.5 μL of the reaction substrate diluted in the enzyme reaction buffer was added to each well, the final concentration of which was 10 μM in 10 μL reaction system. After the mixture was reacted at room temperature for 120 minutes, 10 μL of detection reagent was added to each well. The reaction solution was incubated for 20 minutes at room temperature, and the plate was read with Synergy Neo 2 for detection. The value was converted into inhibition rate by the following formula: Inhibition rate=(Signalpositive−Signaltest)/(Signalpositive−Signalnegative)×100%
Signalpositive was positive control without test compound. Signalnegative was negative control without test compound and SSAO enzyme, and Signaltest was detection value of each compound at different concentrations. IC50 value was calculated by using 4 parameter curve fitting.

Row | Compound | IC50 (Recombinant human MAO-A) | IC50 (Recombinant human MAO-B) | IC50 [1]
1 | CC1CN(c2ncc(OC/C(=C/F)CN)cn2)CC(C)N1C1COC1 (stereo not drawn) [Example 1, (E)-2-(((2-(3,5-dimethyl-4-(oxbutan-3-yl)piperazin-1-yl)pyrimidin-5-yl)oxo)methyl)-3-fluoroprop-2-en-1-amine] | > 100 µM | > 20 µM | < 10 nM
2 | COC1CC2CC1CN2c1ncc(OC/C(=C/F)CN)cn1 (stereo not drawn) [Example 2] | 2 to 100 µM | > 20 µM | < 10 nM
3 | NC/C(=C\F)COc1cnc(N2CCC3(CC2)COC3)nc1 [Example 3] | 2 to 100 µM | > 20 µM | < 10 nM
4 | NC/C(=C\F)COc1cnc(N2CCN(C3COC3)CC2)nc1 [Example 4, (E)-3-fluoro-2-(((2-(4-(oxbutan-3-yl)piperazin-1-yl)pyrimidin-5-yl)oxo)methyl)prop-2-en-1-amine] | > 100 µM | > 20 µM | < 10 nM
5 | CC1(C)CN(C2COC2)CCN1c1ncc(OC/C(=C/F)CN)cn1 [Example 5] | > 100 µM | > 20 µM | 10 to 50 nM
6 | NC/C(=C\F)COc1cnc(N2CC3CCC(C2)N3C2COC2)nc1 [Example 6] | > 100 µM | > 20 µM | 10 to 50 nM
7 | N#Cc1cc(OC/C(=C/F)CN)cnc1N1CCN(C2COC2)CC1 [Example 7] | > 100 µM | 5 to 20 µM | > 50 nM
8 | NC/C(=C/F)COc1cnc(N2CCN(C3COC3)CC2)nc1 [Example 8] | 2 to 100 µM | 5 to 20 µM | < 10 nM
9 | NC/C(=C\F)COc1cnc(N2CCN(c3cnc(N4CCN(C5COC5)CC4)nc3)CC2)nc1 [Example 9] | > 100 µM | > 20 µM | < 10 nM
10 | CC1(C)CN(c2ncc(OC/C(=C/F)CN)cn2)CCN1C1COC1 [Example 10] | > 100 µM | > 20 µM | 10 to 50 nM
11 | COC1CC2CCC(C1)N2c1ncc(OC/C(=C/F)CN)cn1 (stereo not drawn) [Example 12] | 2 to 100 µM | > 20 µM | < 10 nM
